In brackets after ≈: the same amount, converted by molar mass. Where a SMILES comes first, the peptide text is derived from it. Side-chain parts run from the residue outwards. [ ]: non-standard residue; d: D form. The star is where a group is joined. Lys(α,ε-(ArgTrp)2) = N=C(N)NCCC[C@H](N)C(=O)N[C@@H](Cc1c[nH]c2ccccc12)C(=O)NCCCC[C@H](NC(=O)[C@H](Cc1c[nH]c2ccccc12)NC(=O)[C@@H](N)CCCNC(=N)N)C(=O)*; NHBn = c1ccc(CN*)cc1; OBn = c1ccc(CO*)cc1; X1 = CCCCCCCCCN*; βAla = NCCC(=O)O
test system: E. faecalis (29212); settings: 29212

Compound	MIC50 E. faecalis
N=C(N)NCCC[C@H](N)C(=O)N[C@@H](Cc1c[nH]c2ccccc12)C(=O)NCCCC[C@H](NC(=O)[C@H](Cc1c[nH]c2ccccc12)NC(=O)[C@@H](N)CCCNC(=N)N)C(=O)NCCCC[C@H](NC(=O)[C@H](CCCCNC(=O)[C@H](Cc1c[nH]c2ccccc12)NC(=O)[C@@H](N)CCCNC(=N)N)NC(=O)[C@H](Cc1c[nH]c2ccccc12)NC(=O)[C@@H](N)CCCNC(=N)N)C(=O)NCCC(=O)NCc1ccccc1 [(RW)4D-Benzyl amine] (H-RWK([Trp-Arg])K(Lys(α,ε-(ArgTrp)2))[βAla]-NHBn)	5.1 µg/mL (≈ 2.64 µM)
N=C(N)NCCC[C@H](N)C(=O)N[C@@H](Cc1c[nH]c2ccccc12)C(=O)NCCCC[C@H](NC(=O)[C@H](Cc1c[nH]c2ccccc12)NC(=O)[C@@H](N)CCCNC(=N)N)C(=O)NCCCC[C@H](NC(=O)[C@H](CCCCNC(=O)[C@H](Cc1c[nH]c2ccccc12)NC(=O)[C@@H](N)CCCNC(=N)N)NC(=O)[C@H](Cc1c[nH]c2ccccc12)NC(=O)[C@@H](N)CCCNC(=N)N)C(=O)NCCC(=O)OCc1ccccc1 [(RW)4D-Benzyl ester] (H-RWK([Trp-Arg])K(Lys(α,ε-(ArgTrp)2))[βAla]-OBn)	6.7 µg/mL (≈ 3.47 µM)
CCCCCCCCCNC(=O)CCNC(=O)[C@H](CCCCNC(=O)[C@H](CCCCNC(=O)[C@H](Cc1c[nH]c2ccccc12)NC(=O)[C@@H](N)CCCNC(=N)N)NC(=O)[C@H](Cc1c[nH]c2ccccc12)NC(=O)[C@@H](N)CCCNC(=N)N)NC(=O)[C@H](CCCCNC(=O)[C@H](Cc1c[nH]c2ccccc12)NC(=O)[C@@H](N)CCCNC(=N)N)NC(=O)[C@H](Cc1c[nH]c2ccccc12)NC(=O)[C@@H](N)CCCNC(=N)N [(RW)4D-Nonylamine] (H-RWK([Trp-Arg])K(Lys(α,ε-(ArgTrp)2))[βAla]-X1)	5.7 µg/mL (≈ 2.9 µM)
